Laboratory results from US12448388B2, “PRMT5 inhibitors and uses thereof” (Gilead Sciences, Inc., priority 2023, dated 2025).

Tested on: HCT116 MTAP-deleted cell lines
Experiment: Cell viability assay (CellTiter-Glo, 7 days), HCT116 MTAP-deleted
Assay type: cell-based
Details: Homo sapiens, HCT-116; cell viability, HCT116 MTAP-deleted; class symbols; read-out: CC50
In short: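 HCT116 MTAP-deleted and wild-type cells exposed to serially diluted compound for 7 days at 37 °C, 5% CO2. Viability read by CellTiter-Glo luminescence; CC50 derived per line, with selectivity comparing WT to MTAP-deleted, limited solubility can inflate values marked *.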

In the case of `CN(C(=O)c1cc2c(cc1F)nc(N)c1cncn12)C1CCc2nc(Cl)sc21` (stereo not drawn) [Ff-16, 4-amino-N-(2-chloro-5,6-dihydro-4H-cyclopenta[d]thiazol-6-yl)-7-fluoro-N-methylimidazo[1,5-a]quinoxaline-8-carboxamide], the CC50 is reported as 100 to 1000 nM.
`CN(Cc1ccc(F)cc1Cl)C(=O)c1ccc2nc(N)c3cncn3c2c1` [Ff-30, 4-amino-N-(2-chloro-4-fluorobenzyl)-N-methylimidazo[1,5-a]quinoxaline-8-carboxamide] was tested, and the CC50 was greater than 1000 nM.
Work on `CN(Cc1ccc(F)cc1Cl)C(=O)c1cc2c(cc1F)nc(N)c1cncn12` [Ff-31, 4-amino-N-(2-chloro-4-fluorobenzyl)-7-fluoro-N-methylimidazo[1,5-a]quinoxaline-8-carboxamide] yielded a CC50 of 100 to 1000 nM.
For `Nc1nc2cc(F)c(C(=O)N3CCOC[C@@H]3c3ccc(C(F)(F)F)cc3)cc2n2cncc12` [Ff-38, (S)-(4-amino-7-fluoroimidazo[1,5-a]quinoxalin-8-yl)(3-(4-(trifluoromethyl)phenyl)morpholino)methanone], the CC50 was less than 100 nM.
`CN(C(=O)c1cc2c(cc1F)nc(N)c1cncn12)C1COCc2cc(C(F)(F)F)ccc21` (stereo not drawn) [Ff-39, 4-amino-7-fluoro-N-methyl-N-(7-(trifluoromethyl)isochroman-4-yl)imidazo[1,5-a]quinoxaline-8-carboxamide] gave a CC50 of less than 100 nM.
Compound `CN(C(=O)c1cc2c(cc1F)nc(N)c1cncn12)C1CCOc2cc(C(F)(F)F)ccc21` (stereo not drawn) [Ff-40, 4-amino-7-fluoro-N-methyl-N-(7-(trifluoromethyl)chroman-4-yl)imidazo[1,5-a]quinoxaline-8-carboxamide] has a CC50 of 100 to 1000 nM.
Compound `Nc1nc2cc(F)c(C(=O)N3CCCC4OCc5cc(C(F)(F)F)ccc5C43)cc2n2cncc12` (stereo not drawn) [Ff-43, (4-amino-7-fluoroimidazo[1,5-a]quinoxalin-8-yl)(8-(trifluoromethyl)-2,3,4,4a,6,10b-hexahydro-1H-isochromeno[4,3-b]pyridin-1-yl)methanone] has a CC50 of less than 100 nM.
`Cn1cc(N(Cc2ccc(C(F)(F)F)cc2F)C(=O)c2cc3c(cc2F)nc(N)c2cncn23)cn1` [Ff-45, 4-amino-7-fluoro-N-(2-fluoro-4-(trifluoromethyl)benzyl)-N-(1-methyl-1H-pyrazol-4-yl)imidazo[1,5-a]quinoxaline-8-carboxamide] showed a CC50 of less than 100 nM.
With `Cn1cc(N(Cc2ccc(C(F)(F)F)cn2)C(=O)c2cc3c(cc2F)nc(N)c2cncn23)cn1` [Ff-46, 4-amino-7-fluoro-N-(1-methyl-1H-pyrazol-4-yl)-N-((5-(trifluoromethyl)pyridin-2-yl)methyl)imidazo[1,5-a]quinoxaline-8-carboxamide] the CC50 was less than 100 nM.
`[2H]C([2H])([2H])N(C(=O)c1cc2c(cc1F)nc(N)c1cncn12)[C@@H]1COc2cc(C(F)(F)F)ccc21` [Ff-47, 4-amino-7-fluoro-N-(methyl-d3)-N-(6-(trifluoromethyl)-2,3-dihydrobenzofuran-3-yl)imidazo[1,5-a]quinoxaline-8-carboxamide] showed a CC50 of less than 100 nM.
In the case of `CN(Cc1nc(-c2cnn(C(F)F)c2)cs1)C(=O)c1cc2c(cc1F)nc(N)c1cncn12` [Ff-48, 4-amino-N-((4-(1-(difluoromethyl)-1H-pyrazol-4-yl)thiazol-2-yl)methyl)-7-fluoro-N-methylimidazo[1,5-a]quinoxaline-8-carboxamide], the CC50 is reported as 100 to 1000 nM.
For `Cc1ncc2c(N)nc3ccc(C(=O)N(C)Cc4cc5cc(C(F)(F)F)ccn5n4)cc3n12` [Ff-49, 4-amino-N,1-dimethyl-N-((5-(trifluoromethyl)pyrazolo[1,5-a]pyridin-2-yl)methyl)imidazo[1,5-a]quinoxaline-8-carboxamide], the CC50 was greater than 1000 nM.
In the case of `CC(C)N(Cc1ccc(-c2cnn(C(F)(F)F)c2)cc1F)C(=O)c1ccc2nc(N)c3cncn3c2c1` [Ff-50, 4-amino-N-(2-fluoro-4-(1-(trifluoromethyl)-1H-pyrazol-4-yl)benzyl)-N-isopropylimidazo[1,5-a]quinoxaline-8-carboxamide], the CC50 is reported as less than 100 nM.
For `CC(C)N(Cc1ccc(-c2cnn(C(F)F)c2)cc1F)C(=O)c1ccc2nc(N)c3cncn3c2c1` [Ff-51, 4-amino-N-(4-(1-(difluoromethyl)-1H-pyrazol-4-yl)-2-fluorobenzyl)-N-isopropylimidazo[1,5-a]quinoxaline-8-carboxamide], the CC50 was 100 to 1000 nM.
Compound `Nc1nc2cc(F)c(C(=O)N(Cc3ccc4ncsc4c3)C34CC(C3)C4)cc2n2cncc12` [Ff-52, 4-amino-N-(benzo[d]thiazol-6-ylmethyl)-N-(bicyclo[1.1.1]pentan-1-yl)-7-fluoroimidazo[1,5-a]quinoxaline-8-carboxamide] has a CC50 of 100 to 1000 nM.
`Nc1nc2cc(F)c(C(=O)N(Cc3ccc(-n4ccnc4)cc3Cl)C34CC(C3)C4)cc2n2cncc12` [Ff-53, 4-amino-N-(bicyclo[1.1.1]pentan-1-yl)-N-(2-chloro-4-(1H-imidazol-1-yl)benzyl)-7-fluoroimidazo[1,5-a]quinoxaline-8-carboxamide] showed a CC50 of less than 100 nM.
For `CC(C)N(Cc1ccc(Oc2ccccc2)cc1)C(=O)c1ccc2nc(N)c3cncn3c2c1` [Ff-57, 4-amino-N-isopropyl-N-(4-phenoxybenzyl)imidazo[1,5-a]quinoxaline-8-carboxamide], the CC50 was 100 to 1000 nM.
`Cc1ncc2c(N)nc3ccc(C(=O)N4CCC5(CC4)COc4ccccc45)cc3n12` [Ff-61, (4-amino-1-methylimidazo[1,5-a]quinoxalin-8-yl)(2H-spiro[benzofuran-3,4′-piperidin]-1′-yl)methanone] was tested, and the CC50 was greater than 1000 nM.
`Nc1nc2ccc(C(=O)N(Cc3ccc(-n4ccnc4)cc3Cl)C34CC(C3)C4)cc2n2cncc12` [Ff-63, 4-amino-N-(bicyclo[1.1.1]pentan-1-yl)-N-(2-chloro-4-(1H-imidazol-1-yl)benzyl)imidazo[1,5-a]quinoxaline-8-carboxamide] gave a CC50 of 100 to 1000 nM.
With `Cc1ncc2c(N)nc3ccc(C(=O)N4CCC5(CC4)C(=O)N(C)c4ccccc45)cc3n12` [Ff-64, 1′-(4-amino-1-methylimidazo[1,5-a]quinoxaline-8-carbonyl)-1-methylspiro[indoline-3,4′-piperidin]-2-one] the CC50 was 100 to 1000 nM.
`Cc1ncc2c(N)nc3ccc(C(=O)N4CCC5(CC4)C(=O)Nc4ccccc45)cc3n12` [Ff-65, 1′-(4-amino-1-methylimidazo[1,5-a]quinoxaline-8-carbonyl)spiro[indoline-3,4′-piperidin]-2-one] was tested, and the CC50 was greater than 1000 nM.
Compound `Nc1nc2cc(F)c(C(=O)N3CC[C@@H]4Oc5cc(C(F)(F)F)ccc5[C@@H]43)cc2n2cncc12` [Ff-66, (4-amino-7-fluoroimidazo[1,5-a]quinoxalin-8-yl)((3aS,8bS)-6-(trifluoromethyl)-2,3,3a,8b-tetrahydro-1H-benzofuro[3,2-b]pyrrol-1-yl)methanone] has a CC50 of 100 to 1000 nM.
For `Cc1ncn2c1c(N)nc1cc(F)c(C(=O)N(C)C3CCc4nc(C(F)(F)F)ccc43)cc12` (stereo not drawn) [Ff-68, 4-amino-7-fluoro-N,3-dimethyl-N-(2-(trifluoromethyl)-6,7-dihydro-5H-cyclopenta[b]pyridin-5-yl)imidazo[1,5-a]quinoxaline-8-carboxamide], the CC50 was less than 100 nM.
For `C[C@H](C(=O)N(C)C)N(Cc1ccc(C(F)(F)F)cc1F)C(=O)c1cc2c(cc1F)nc(N)c1cncn12` [Ff-69, 4-amino-N-[(1R)-2-(dimethylamino)-1-methyl-2-oxo-ethyl]-7-fluoro-N-[[2-fluoro-4-(trifluoromethyl)phenyl]methyl]imidazo[1,5-a]quinoxaline-8-carboxamide], the CC50 was 100 to 1000 nM.
`CN1CC[C@@H](N(Cc2ccc(C(F)(F)F)cc2F)C(=O)c2cc3c(cc2F)nc(N)c2cncn23)C1=O` [Ff-70, 4-amino-7-fluoro-N-[[2-fluoro-4-(trifluoromethyl)phenyl]methyl]-N-[(3R)-1-methyl-2-oxo-pyrrolidin-3-yl]imidazo[1,5-a]quinoxaline-8-carboxamide] gave a CC50 of less than 100 nM.
`CCN(Cc1ccc(F)cc1Cl)C(=O)c1ccc2nc(N)c3cncn3c2c1` [Ff-71, 4-amino-N-(2-chloro-4-fluorobenzyl)-N-ethylimidazo[1,5-a]quinoxaline-8-carboxamide] showed a CC50 of 100 to 1000 nM.
Work on `CC(C)N(Cc1ccc(F)cc1Cl)C(=O)c1ccc2nc(N)c3cncn3c2c1` [Ff-72, 4-amino-N-(2-chloro-4-fluorobenzyl)-N-isopropylimidazo[1,5-a]quinoxaline-8-carboxamide] yielded a CC50 of 100 to 1000 nM.
`Nc1nc2cc(F)c(C(=O)N(Cc3ccc(F)cc3Cl)C3CCC3)cc2n2cncc12` [Ff-73, 4-amino-N-(2-chloro-4-fluorobenzyl)-N-cyclobutyl-7-fluoroimidazo[1,5-a]quinoxaline-8-carboxamide] showed a CC50 of 100 to 1000 nM.
Work on `Nc1nc2ccc(C(=O)N3CCOC[C@@H]3c3ccc(C(F)(F)F)cc3)cc2n2cncc12` [Ff-84, (S)-(4-aminoimidazo[1,5-a]quinoxalin-8-yl)(3-(4-(trifluoromethyl)phenyl)morpholino)methanone] yielded a CC50 of 100 to 1000 nM.
For `Nc1nc2cnc(C(=O)N3CCOC[C@@H]3c3ccc(C(F)(F)F)cc3)cc2n2cncc12` [Ff-86, (S)-(4-aminoimidazo[1,5-a]pyrido[3,4-e]pyrazin-8-yl)(3-(4-(trifluoromethyl)phenyl)morpholino)methanone], the CC50 was less than 100 nM.
`Nc1nc2cnc(C(=O)N3CCCC[C@@H]3c3ccc(C(F)(F)F)cc3)cc2n2cncc12` [Ff-87, (R)-(4-aminoimidazo[1,5-a]pyrido[3,4-e]pyrazin-8-yl)(2-(4-(trifluoromethyl)phenyl)piperidin-1-yl)methanone] showed a CC50 of less than 100 nM.
`C[C@H]1CN(C(=O)c2ccc3nc(N)c4cncn4c3c2)[C@H]2c3ccc(C(F)(F)F)cc3C[C@H]2O1` [Ff-89, (4-aminoimidazo[1,5-a]quinoxalin-8-yl)((2S,4aS,9aR)-2-methyl-7-(trifluoromethyl)-2,3,9,9a-tetrahydroindeno[2,1-b][1,4]oxazin-4(4aH)-yl)methanone] gave a CC50 of less than 100 nM.
With `Cc1ncc2c(N)nc3cc(F)c(C(=O)N4CCOC[C@@H]4c4ccc(C(F)(F)F)cc4)cc3n12` [Ff-92, (S)-(4-amino-7-fluoro-1-methylimidazo[1,5-a]quinoxalin-8-yl)(3-(4-(trifluoromethyl)phenyl)morpholino)methanone] the CC50 was less than 100 nM.
